Reference: publication PMC6162288, “On-chip spatiotemporal electrophysiological analysis of human stem cell derived cardiomyocytes enables quantitative assessment of proarrhythmia in drug development” (Scientific Reports, 2018)
Where “and” joins values, the source holds several entries; their conditions need not be identical. Identical values can stand only once.

Tests used:
hERG = conditions: cited from earlier work
lined-up hESC-CMs = assay: MEA field potential recording of lined-up hESC-CMs (cFPD, CT, their STVs, ISI, beat rate, arrest); format: cell-based, human; conditions: for BR (beat rate) / Cond. Time (CT) / ISI (inter-spike interval) / STVCT / STVcFPD / cFPD: change vs Ctrl.
Method: Human embryonic stem cell-derived cardiomyocytes clusters (hES-CMCs) were shipped from Cellectis (hES-CMCTM002, hES cell line SA002, Gothenburg, Sweden)[42],[43], and maintained in Dulbecco’s modified Eagle’s medium (DMEM) supplemented 20% heat-inactivated fetal bovaine serum, 1 mM GlutaMax, 100 U/mL penicillin, 0.1 mg/mL streptomycin, 1% nonessential amino acids and 0.1 mM β-mercaptoethanol (Invitrogen, Carsbad, CA, USA). Dispersed cardiomyocytes were isolated from hES-CMCs by a modification of the methods of Norström et al.[44]–[48]. […] The supernatant was gently aspirated with pipette, and a 5-hold volume of DMEM was added as stop solution. Remaining clusters were treats ed with the above process with several times. The supernatants were collected and centrifuged with 200 × g for 2–3 min at 4 °C. The resulting supernatant including dispersed cells was seeded into agarose microchambers on an MEA chip (MED-P530A; AlphaMED scientific. Co. Ltd., Japan)[40].
The MEA chip surface was prepared as follows. First, the chip surface was coated with collagen type I-C (Nitta Gelatin, Japan). After drying, the chip surface was coated with a 0.1% agarose gel. […] At >30 min before the start of experiment, the medium was changed to 2 mL pre-warmed fresh maintenance medium per chip.
Extracellular potential recordings of the lined-up hESC-CMs were performed using the MEA system at a sampling rate of 10 kHz with a low path filter of 2 kHz and high path filter of 1 Hz, and signals were amplified by 100–50,000 using the amplifier. The MEA chip with lined-up hESC-CMs was set in the FP measurement device and placed in a humidified cell culture incubator at 37 °C, 5% CO2. The signals were analyzed by Igor Pro 6.0 (WaveMetrics, Inc., USA) and FlexPro 7.0 (Weisang GmbH, Germany).
We adopted the same drug administration protocol as we examined previously[40] (Fig. 2B). Briefly, the MEA chips of lined-up cells for experiments were selected from the chips having 0.6–1.1 Hz beating frequency and ventricle-like waveforms of FP recordings (see Fig. 1B,D). The MEA chip was placed in the holder of the FP measurement device, and equilibrated for 5 min, and then the control FP waveforms were recorded for 10 min. Subsequently, the drug was applied to the medium at 1% dilution in serially increasing additions, and the FP waveforms were recorded for 10 min at each concentration. Finally, the drug-containing medium was replaced with fresh medium after washing three times. The last 50 beats extracted from 10 min recorded FP waveform data was used for beat rate, FPD (the time from first depolarization peak to broad repolarization peak) and CT (the time difference of the first peaks between separately placed electrodes in lined-upped cell-network) measurement at each concentration (Fig. 2C).
It was normalized (cFPD) to the beating rate of cardiomyocytes using Bazett’s correction formula based on the comparison of the slope of a plot of inter-spike interval and FPD, or corrected FPD by Bazett’s or Fridericia’s formulae (Fig. 3). The short-term variability (STV) of cFPD and CT, which was defined as the mean distance of points perpendicular to the line of identity in the Poincaré plot, was calculated ( STV=∑|D(n+1)−Dn|/(n×2) , where Dn represents the FPD and CT of n-th beating). STVs were last 50 beat data from 5 min extraction of cFPD and CT. To assess the arrhythmogenicity risk of test drugs, the mean values of cFPD, STVcFPD, CT and STVCT of each drug were plotted.

Nav1.5 = conditions: read-out: IC50 Nav1.5; cited from earlier work
[1] = cited from earlier work
Cav1.2 = conditions: read-out: IC50 Cav1.2; cited from earlier work
[2] = Conc. 10^3 nM (1 μM), listed as astemizole

## COc1ccc(CCN2CCC(Nc3nc4ccccc4n3Cc3ccc(F)cc3)CC2)cc1 [Astemizole, astemizole]
hERG
  IC50: […]
lined-up hESC-CMs; Conc. 1 nM
  BR (beat rate): 6.0%
  Cond. Time (CT): −0.99%
  ISI (inter-spike interval): −5.4%
  STVCT: 46%
  STVcFPD: −14%
  cFPD: 0.24%
lined-up hESC-CMs; Conc. 10 nM
  BR (beat rate): 6.5%
  Cond. Time (CT): −3.0%
  ISI (inter-spike interval): −5.9%
  STVCT: 13%
  STVcFPD: 3.5%
  cFPD: 0.69%
lined-up hESC-CMs; Conc. 10^2 nM (0.1 μM)
  Cond. Time (CT): −1.4%
  STVCT: 483%
  STVcFPD: 14%
  cFPD: 4.4%
lined-up hESC-CMs; Conc. 10^2 nM (0.1 μM), listed as astemizole
  STVCT: 483%
lined-up hESC-CMs; Conc. 10^2 nM
  BR (beat rate): 6.1%
  ISI (inter-spike interval): −5.3%
lined-up hESC-CMs; Conc. 10^3 nM (1 μM)
  Cond. Time (CT): 126%
  STVCT: 196%
  STVcFPD: 122%
  cFPD: 43.7% and 44%
lined-up hESC-CMs; [2]
  STVCT: 196%
  STVcFPD: 122%
lined-up hESC-CMs; Conc. 10^3 nM
  BR (beat rate): −2.5%
  ISI (inter-spike interval): 3.1%
lined-up hESC-CMs; Conc. 10^−1 nM
  BR (beat rate): 2.0%
  ISI (inter-spike interval): −1.9%
  STVCT: 46%
  STVcFPD: −2.8%
  cFPD: −0.71%
lined-up hESC-CMs; Conc. 10^−1 nM, 150 μm inter-electrode distance
  Cond. Time (CT): −3.3%
lined-up hESC-CMs; at 10 times higher than therapeutic plasma concentrations
  FPD (repolarization index): […]
lined-up hESC-CMs; at equivalent concentrations of Nav1.5 IC50
  CT: increased
Nav1.5
  IC50: 2200 nM
[1]; effective therapeutic plasma concentration
  EPTC: 5.5 to 7.9 nM
[1]; unbound therapeutic plasma concentration
  Unbound: 0.2 to 0.26 nM
Cav1.2
  IC50: 700 nM
